Experiments:
[1] = target: T1, recombinant human ALK5 (TGF-βR1) protein (Homo sapiens, UniProt P36897); experiment: Biochemical ALK5 (TGF-βR1) assay to measure pKi (LANCE Ultra ULight kinase assay); settings: apparent pKi from pIC50 by Cheng-Prusoff, read-out: ALK5 pKi (converted)
T1 construct: purchased Life Technologies PR9075A
T1 sequence (P36897 34-503): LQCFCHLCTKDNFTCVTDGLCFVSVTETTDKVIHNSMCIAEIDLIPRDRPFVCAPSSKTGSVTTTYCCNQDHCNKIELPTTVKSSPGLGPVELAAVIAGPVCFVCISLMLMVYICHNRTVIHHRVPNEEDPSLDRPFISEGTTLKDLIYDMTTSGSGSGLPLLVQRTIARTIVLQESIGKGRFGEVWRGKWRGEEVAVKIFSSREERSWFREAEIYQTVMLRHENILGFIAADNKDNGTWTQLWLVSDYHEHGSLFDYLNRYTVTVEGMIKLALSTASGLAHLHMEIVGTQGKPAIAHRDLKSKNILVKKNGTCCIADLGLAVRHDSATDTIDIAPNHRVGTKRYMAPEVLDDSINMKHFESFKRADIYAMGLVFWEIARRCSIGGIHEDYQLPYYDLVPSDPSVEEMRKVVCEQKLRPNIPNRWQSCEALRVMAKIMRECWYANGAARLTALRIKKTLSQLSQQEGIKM
In short: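 After a 60 min room-temperature preincubation of ALK5 with compound, phosphorylation proceeds 60 min at 37 °C on ATP addition (125 μM as 5× stock). Detection: Eu-labelled phospho-Thr1342 Topo IIα antibody in EDTA buffer, pH 7.0; emission 665 nm.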

[2] = system: TGF-β-stimulated SMAD3 phosphorylation in BEAS-2B cells; experiment: Cellular ALK5 potency assay, inhibition of TGF-β stimulated pSMAD3 formation in BEAS-2B cells; assay type: cell-based; settings: Homo sapiens; inhibition of TGF-β stimulated pSMAD3 formation, BEAS-2B cells; read-out: BEAS2B pIC50 (converted)
In short: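 BEAS-2B human lung epithelial cells, seeded overnight, were pre-treated with compound in HBSS/25 mM HEPES/1% BSA for 1 h at 37 °C, then stimulated with TGF-β (final 10 ng/mL) for 30 min. Lysates were assayed for pSMAD3 by AlphaLISA; pIC50 came from dose-dependent signal change versus TGF-β-stimulated untreated cells.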

Cc1nc(-c2n[nH]cc2-c2ccc3ncc(N4CCC(N5CCN(C)CC5)CC4)cc3c2)ccc1F [Compound 93, 6-[3-(5-fluoro-6-methyl-2-pyridyl)-1H-pyrazol-4-yl]-3-[4-(4-methylpiperazin-1-yl)-1-piperidyl]quinoline]
Ki [1]: < 0.0316 nM | IC50 [2]: 25.1 to 158 nM

CNC1CN(c2cnc3ccc(-c4c[nH]nc4-c4cccc(C)n4)nc3c2)C1 [Compound 94, N-methyl-1-[6-[3-(6-methyl-2-pyridyl)-1H-pyrazol-4-yl]-1,5-naphthyridin-3-yl]azetidin-3-amine]
Ki [1]: 0.0398 to 0.316 nM | IC50 [2]: 25.1 to 158 nM

Cc1cccc(-c2nc3ccccn3c2-c2ccc3ncc(N4CCC(N5CCN(C)CC5)CC4)cc3c2)n1 [Compound 95, 3-[4-(4-methylpiperazin-1-yl)-1-piperidyl]-6-[2-(6-methyl-2-pyridyl)imidazo[1,2-a]pyridin-3-yl]quinoline]
Ki [1]: 0.0398 to 0.316 nM | IC50 [2]: 25.1 to 158 nM

CNC1(Cn2cc(-c3cnc4ccc(-c5c[nH]nc5-c5ccc(F)c(C)n5)nc4c3)cn2)CC1 [Compound 97, 1-[[4-[6-[3-(5-fluoro-6-methyl-2-pyridyl)-1H-pyrazol-4-yl]-1,5-naphthyridin-3-yl]pyrazol-1-yl]methyl]-N-methyl-cyclopropanamine]
Ki [1]: < 0.0316 nM | IC50 [2]: < 20 nM

Cc1cccc(-c2[nH]cnc2-c2ccc3ncc(C4=CCC(NC(=O)CSC5CCOC5=O)CC4)cc3c2)n1 (centres unmarked) [Compound 98, N-(4-(6-(5-(6-methylpyridin-2-yl)-1H-imidazol-4-yl)quinolin-3-yl)cyclohex-3-en-1-yl)-2-((2-oxotetrahydrofuran-3-yl)thio)acetamide]
Ki [1]: 0.0398 to 0.316 nM | IC50 [2]: 25.1 to 158 nM

Cc1cccc(-c2n[nH]cc2-c2ccc3ncc(NC(=O)CCCN4CCN(C(C)C)CC4)cc3n2)n1 [Compound 99, 4-(4-isopropylpiperazin-1-yl)-N-[6-[3-(6-methyl-2-pyridyl)-1H-pyrazol-4-yl]-1,5-naphthyridin-3-yl]butanamide]
Ki [1]: 0.0398 to 0.316 nM | IC50 [2]: 25.1 to 158 nM

CNCc1ccnc2ccc(-c3nc[nH]c3-c3cccc(C)n3)cc12 [Compound 100, N-methyl-1-[6-[5-(6-methyl-2-pyridyl)-1H-imidazol-4-yl]-4-quinolyl]methanamine]
Ki [1]: 0.398 to 3.16 nM | IC50 [2]: 25.1 to 158 nM

Cc1cccc(-c2n[nH]cc2-c2ccc3ncc(-c4cn(Cc5c[nH]cn5)nn4)cc3n2)n1 [Compound 101, 7-[1-(1H-imidazol-4-ylmethyl)triazol-4-yl]-2-[3-(6-methyl-2-pyridyl)-1H-pyrazol-4-yl]-1,5-naphthyridine]
Ki [1]: < 0.0316 nM | IC50 [2]: 200 to 1260 nM

Cc1cccc(-c2n[nH]cc2-c2ccc3ncc(-c4nnc5n4CCN5)cc3n2)n1 [Compound 102, 7-(6,7-dihydro-5H-imidazo[2,1-c][1,2,4]triazol-3-yl)-2-[3-(6-methyl-2-pyridyl)-1H-pyrazol-4-yl]-1,5-naphthyridine]
Ki [1]: 0.0398 to 0.316 nM | IC50 [2]: 1580 to 10000 nM

Cc1cccc(-c2n[nH]cc2-c2ccc3ncc(N(C)CCN4CCOCC4)cc3n2)n1 [Compound 103, N-methyl-6-[3-(6-methyl-2-pyridyl)-1H-pyrazol-4-yl]-N-(2-morpholinoethyl)-1,5-naphthyridin-3-amine]
Ki [1]: 0.0398 to 0.316 nM | IC50 [2]: 25.1 to 158 nM

Cc1cccc(-c2[nH]cnc2-c2ccc3ncc(NCCN4CCN(C(C)C)CC4)cc3n2)n1 [Compound 104, N-(2-(4-isopropylpiperazin-1-yl)ethyl)-6-(5-(6-methylpyridin-2-yl)-1H-imidazol-4-yl)-1,5-naphthyridin-3-amine]
Ki [1]: 0.0398 to 0.316 nM | IC50 [2]: 25.1 to 158 nM

COc1n[nH]c(-c2cccc(C)n2)c1-c1ccc2ncc(-c3cccnc3)cc2n1 [Compound 105, 2-(5-methoxy-3-(6-methylpyridin-2-yl)-1H-pyrazol-4-yl)-7-(pyridin-3-yl)-1,5-naphthyridine]
Ki [1]: 0.0398 to 0.316 nM | IC50 [2]: 25.1 to 158 nM

CNc1cnc2ccc(-c3c[nH]nc3-c3cccc(C)n3)nc2c1 [Compound 106, N-methyl-6-[3-(6-methyl-2-pyridyl)-1H-pyrazol-4-yl]-1,5-naphthyridin-3-amine]
Ki [1]: 0.0398 to 0.316 nM | IC50 [2]: < 20 nM

Cc1nc(-c2n[nH]cc2-c2ccc3ncc(-c4ncn5c4CNCC5)cc3n2)ccc1F [Compound 107, 2-[3-(5-fluoro-6-methyl-2-pyridyl)-1H-pyrazol-4-yl]-7-(5,6,7,8-tetrahydroimidazo[1,5-a]pyrazin-1-yl)-1,5-naphthyridine]
Ki [1]: 0.0398 to 0.316 nM | IC50 [2]: 25.1 to 158 nM

CNCCn1ccc(-c2cnc3ccc(-c4c[nH]nc4-c4ccc(F)c(C)n4)nc3c2)n1 [Compound 108, 2-[3-[6-[3-(5-fluoro-6-methyl-2-pyridyl)-1H-pyrazol-4-yl]-1,5-naphthyridin-3-yl]pyrazol-1-yl]-N-methyl-ethanamine]
Ki [1]: 0.0398 to 0.316 nM | IC50 [2]: 25.1 to 158 nM

Cc1cccc(-c2n[nH]cc2-c2ccc3ncc(C(=O)NCCCN4CCOCC4)cc3n2)n1 [Compound 109, 6-[3-(6-methyl-2-pyridyl)-1H-pyrazol-4-yl]-N-(3-morpholinopropyl)-1,5-naphthyridine-3-carboxamide]
Ki [1]: 0.0398 to 0.316 nM | IC50 [2]: 25.1 to 158 nM

Cc1cccc(-c2[nH]cnc2-c2ccc3ncc(-c4ccc(C(=O)OC5CCNCC5)nc4)cc3c2)n1 [Compound 110, piperidin-4-yl 5-(6-(5-(6-methylpyridin-2-yl)-1H-imidazol-4-yl)quinolin-3-yl)picolinate]
Ki [1]: 0.0398 to 0.316 nM | IC50 [2]: 25.1 to 158 nM

Cc1cccc(-c2n[nH]cc2-c2ccc3ncc(-c4cn(-c5ccccc5)nn4)cc3n2)n1 [Compound 111, 2-[3-(6-methyl-2-pyridyl)-1H-pyrazol-4-yl]-7-(1-phenyltriazol-4-yl)-1,5-naphthyridine]
Ki [1]: 0.0398 to 0.316 nM | IC50 [2]: < 20 nM

COc1[nH]nc(-c2cccc(C)n2)c1-c1ccc2ncc(N3CCC(N4CCN(C)CC4)CC3)cc2n1 [Compound 112, 2-[5-methoxy-3-(6-methyl-2-pyridyl)-1H-pyrazol-4-yl]-7-[4-(4-methylpiperazin-1-yl)-1-piperidyl]-1,5-naphthyridine]
Ki [1]: 0.0398 to 0.316 nM | IC50 [2]: 200 to 1260 nM

Cc1cccc(-c2n[nH]cc2-c2ccc3ncc(NC4CCNCC4)cc3n2)n1 [Compound 113, 6-[3-(6-methyl-2-pyridyl)-1H-pyrazol-4-yl]-N-(4-piperidyl)-1,5-naphthyridin-3-amine]
Ki [1]: 0.0398 to 0.316 nM | IC50 [2]: 200 to 1260 nM

Cc1nc(-c2n[nH]cc2-c2ccc3ncc(N4CCC(N5CCCC5)CC4)cc3n2)ccc1F [Compound 114, 2-[3-(5-fluoro-6-methyl-2-pyridyl)-1H-pyrazol-4-yl]-7-(4-pyrrolidin-1-yl-1-piperidyl)-1,5-naphthyridine]
Ki [1]: < 0.0316 nM | IC50 [2]: 25.1 to 158 nM

Cc1cccc(-c2nn3c(c2-c2ccc4ncc(-c5cn[nH]c5)cc4n2)CNCC3)n1 [Compound 115, 2-(2-(6-Methylpyridin-2-yl)-4,5,6,7-tetrahydropyrazolo[1,5-a]pyrazin-3-yl)-7-(1H-pyrazol-4-yl)-1,5-naphthyridine]
Ki [1]: 0.0398 to 0.316 nM | IC50 [2]: 25.1 to 158 nM

Cc1cccc(-c2[nH]cnc2-c2ccc3ncc(NCCC4CNC4)cc3c2)n1 [Compound 116, N-[2-(azetidin-3-yl)ethyl]-6-[5-(6-methyl-2-pyridyl)-1H-imidazol-4-yl]quinolin-3-amine]
Ki [1]: 0.0398 to 0.316 nM | IC50 [2]: 25.1 to 158 nM

Cc1cccc(-c2[nH]cnc2-c2ccc3ncc(C4=CC(C)(C)NC(C)(C)C4)cc3c2)n1 [Compound 117, 6-[5-(6-methyl-2-pyridyl)-1H-imidazol-4-yl]-3-(2,2,6,6-tetramethyl-1,3-dihydropyridin-4-yl)quinoline]
Ki [1]: 0.398 to 3.16 nM | IC50 [2]: 25.1 to 158 nM

Cc1cccc(-c2n[nH]cc2-c2ccc3ncc(-c4ncn5c4CNCC5)cc3n2)n1 [Compound 118, 2-[3-(6-methyl-2-pyridyl)-1H-pyrazol-4-yl]-7-(5,6,7,8-tetrahydroimidazo[1,5-a]pyrazin-1-yl)-1,5-naphthyridine]
Ki [1]: 0.0398 to 0.316 nM | IC50 [2]: 25.1 to 158 nM

Cc1cccc(-c2[nH]nnc2-c2ccc3ncc(N4CCC(N5CCN(C)CC5)CC4)cc3n2)n1 [Compound 119, 7-[4-(4-methylpiperazin-1-yl)-1-piperidyl]-2-[5-(6-methyl-2-pyridyl)-1H-triazol-4-yl]-1,5-naphthyridine]
Ki [1]: 0.0398 to 0.316 nM | IC50 [2]: 200 to 1260 nM

Cc1cccc(-c2nc3ccccn3c2-c2ccc3ncc(NCCN4CCN(C(C)C)CC4)cc3n2)n1 [Compound 120, N-(2-(4-isopropylpiperazin-1-yl)ethyl)-6-(2-(6-methylpyridin-2-yl)imidazo[1,2-a]pyridin-3-yl)-1,5-naphthyridin-3-amine]
Ki [1]: 0.0398 to 0.316 nM | IC50 [2]: 25.1 to 158 nM

Cc1cccc(-c2n[nH]cc2-c2ccc3ncc(Nc4ccc(N5CCNCC5)cn4)cc3c2)n1 [Compound 121, 6-[3-(6-methyl-2-pyridyl)-1H-pyrazol-4-yl]-N-(5-piperazin-1-yl-2-pyridyl)quinolin-3-amine]
Ki [1]: < 0.0316 nM | IC50 [2]: 25.1 to 158 nM

— US11590116B2 (THERAVANCE BIOPHARMA R&D IP, LLC, priority 2019, dated 2023)
